Each structure is given as a SMILES string. The source made the active and inactive calls. The calls are words filed in the database; no cut-off is given here.

The subject of series [1] is Peritoneal macrophage. In words: Suppression of HMGB1-induced IL-1beta mRNA expression in male ddY mouse Peritoneal macrophage cells at 10 uM incubated for 2 hrs by qRT-PCR analysis. In kind it is functional, cell-based. For orientation: Quantitative PCR measures a nucleic acid by following its amplification.
For series [2], the system named is Peritoneal macrophage. Kind of series: Suppression of HMGB1-induced IL-1beta mRNA expression in male ddY mouse Peritoneal macrophage cells at 10 nM incubated for 2 hrs in presence of RU486 by qRT-PCR analysis. In kind it is functional, cell-based.
The test system of series [3] is RAW264.7. Kind of series: Cytotoxicity against mouse RAW264.7 cells at 100 uM measured after 2 hrs by LDH assay. In kind it is toxicity, cell-based. Particulars: raw264.7, 2 h.
The test system of series [4] is Mus musculus. In words: In vivo inhibition of HMGB1 in male ddY mouse model of collagenase induced intracerebral hemorrhage assessed as reduction in AQP4 protein level at 100 mg/kg, po pretreated with collagenase for 20 mins followed by compound administration via oral gavage and measured at 24 hrs by Western blot analysis. It counts as functional, organism-based. (In general: A western blot detects proteins with antibodies after separation by electrophoresis.)

Series [5] relates to Mus musculus. In words: Effect on brain water content in cerebellum in male ddY mouse model of collagenase induced intracerebral hemorrhage at 100 mg/kg, po pretreated with collagenase for 20 mins followed by compound administration via oral gavage and measured at 24 hrs. In kind it is functional, organism-based.
Series [6] in a line: Solubility of compound at >10 uM. In kind it is physicochemical.
In series [7] the test system is Mus musculus. Kind of series: Suppression of IL-1beta mRNA expression in po dosed male ddY mouse model of collagenase induced intracerebral hemorrhage pretreated with collagenase for 20 mins followed by compound administration via oral gavage and measured at 24 hrs by qRT-PCR analysis. In kind it is functional, organism-based. Particulars: dose 50-100 mg/kg.
Series [8] relates to Mus musculus. Kind of series: Effect on hematoma size in male ddY mouse model of collagenase induced intracerebral hemorrhage at 100 mg/kg, po pretreated with collagenase for 20 mins followed by compound administration via oral gavage and measured at 24 hrs. In kind it is functional, organism-based.
Series [9] has as its system Mus musculus. Kind of series: In vivo inhibition of HMGB1 in male ddY mouse model of collagenase induced intracerebral hemorrhage assessed as reduction in brain water content in ipsilateral hemisphere at 100 mg/kg, po pretreated with collagenase for 20 mins followed by compound administration via oral gavage and measured at 24 hrs. In kind it is functional, organism-based.

A short description of series [10]: Drug uptake in brain of male ddY mouse model of collagenase induced intracerebral hemorrhage assessed as appearance of unchanged form of drug by measuring retention time at 100 mg/kg, po pretreated with collagenase for 20 mins followed by compound administration via oral gavage and measured at 24 hrs by LC-MS analysis. In kind it is ADME, organism-based. Particulars: in vivo.

The subject of series [11] is Mus musculus. Kind of series: Neuroprotective activity in male ddY mouse model of collagenase induced intracerebral hemorrhage assessed as rescue of ICH-induced neuronal loss by measuring increase in NeuN-positive neurons in periphery of […] at 100 mg/kg, po pretreated with collagenase for 20 mins followed by compound administration via oral gavage and measured at 24 hrs by immunohistochemical staining based analysis. It counts as functional, organism-based.

For series [12], the system named is Mus musculus. In words: Effect on brain water content in contralateral hemisphere in male ddY mouse model of collagenase induced intracerebral hemorrhage at 100 mg/kg, po pretreated with collagenase for 20 mins followed by compound administration via oral gavage and measured at 24 hrs. It counts as functional, organism-based.
Series [13] deals with Peritoneal macrophage. Kind of series: Suppression of HMGB1-induced IL-1beta mRNA expression in male ddY mouse Peritoneal macrophage cells at 10 uM incubated for 2 hrs in presence of RU486 by qRT-PCR analysis. In kind it is functional, cell-based.
In series [14] the test system is RAW264.7. Kind of series: Cytotoxicity against mouse RAW264.7 cells at 30 to 100 uM measured after 2 hrs by LDH assay. It counts as toxicity, cell-based. The settings on record: raw264.7, 2 h, dose 30-100 µM.

Turning to `CC1(C)[C@@H](O)CC[C@]2(C)[C@H]3C(=O)C=C4[C@@H]5C[C@@](C)(C(=O)O)CC[C@]5(C)C[C@H](O)[C@@]4(C)[C@]3(C)CC[C@@H]12`, the result in the series on Peritoneal macrophage [1] was inactive.
On to `C[C@]12CCC(=O)C=C1CC[C@@H]1[C@@H]2[C@@H](O)C[C@@]2(C)[C@H]1CC[C@]2(O)C(=O)CO`, for which the result in the series on Peritoneal macrophage [2] was inactive.
As for `CC1(C)C(=O)CC[C@]2(C)[C@H]3C(=O)C=C4[C@@H]5C[C@@](C)(C(=O)O)CC[C@]5(C)CC[C@@]4(C)[C@]3(C)CC[C@@H]12`, the Activity result in the series with RAW264.7 [3] is “Toxic”.
For the molecule `CC1(C)C(=O)CC[C@]2(C)[C@H]3C(=O)C=C4[C@@H]5C[C@@](C)(C(=O)O)CC[C@]5(C)C[C@H](O)[C@@]4(C)[C@]3(C)CC[C@@H]12`, the result in the series with Peritoneal macrophage [1] was inactive. Moreover, in the series with RAW264.7 [3], the Activity entry is “Toxic”.
Turning to `COC(=O)[C@@]1(C)CC[C@]2(C)CC[C@]3(C)C(=CC(=O)[C@@H]4[C@@]5(C)CCC(=O)C(C)(C)[C@@H]5CC[C@]43C)[C@@H]2C1`, the inhibition entry in the series on Mus musculus [4] and with Mus musculus [9] was “Active” each time. Further, the outcome in the series with Mus musculus [5], in the series with Mus musculus [8] and in the series on Mus musculus [12] was inactive. In series [6], the solubility result is on record as “Insoluble”. Moreover, the outcome in the series on Peritoneal macrophage [1], in the series on Mus musculus [11] and in the series with Peritoneal macrophage [13] was Active. Further, the Activity entry with Mus musculus [7] was “Dose-Dependent Effect”. Besides, the Retention_time in series [10] is 11.3 min.
`CC1(C)[C@@H](O[C@H]2O[C@H](C(=O)O)[C@@H](O)[C@H](O)[C@H]2O[C@@H]2O[C@H](C(=O)O)[C@@H](O)[C@H](O)[C@H]2O)CC[C@]2(C)[C@H]3C(=O)C=C4[C@@H]5C[C@@](C)(C(=O)O)CC[C@]5(C)CC[C@@]4(C)[C@]3(C)CC[C@@H]12`: in the series on Peritoneal macrophage [1], the outcome was Active.
As to `CC1(C)[C@@H](O)CC[C@]2(C)[C@H]3C(=O)C=C4[C@@H]5C[C@@](C)(C(=O)O)CC[C@]5(C)CC[C@@]4(C)[C@]3(C)CC[C@@H]12` [ENOXOLONE], the Activity entry with RAW264.7 [14] is given as “Toxic”.

The values above are taken from ChEMBL document CHEMBL5579891, “A Glycyrrhizin Derivative with a More Potent Inhibitory Activity against High-Mobility Group Box 1 Efficiently Discovered by Chemical Synthesis Inspired by the Bioconversion Products of an Endophytic Fungus Isolated from Licorice” (J Med Chem, 2024).
